Measured values taken from US5383848A, “Iontophoretic administration of drugs” (Gensia, Inc., priority 1991, dated 1995).
Entries after “also recorded” stand apart in the source; their conditions may differ.

Tested on: elevated heart rate
Assay: In vivo dog experiments: heart rate offset after iontophoretic ESA drug with pretreatment (Example A)
Set-up: species or system labrador dogs
Conditions: for Offset Slope Component (0-5) min: 0-5 min after heart rate begins to decline; for Offset Slope Component (5-10) min: 5-10 min after decline begins; for Offset Slope Component (10-30) min: 10-30 min after decline begins; for Change in Heart Rate (peak minus baseline) / Peak Heart Rate: Table II; for Total time (startup) thru offset plateau: w/in 20 bpm of baseline / Total time (startup) thru offset plateau: in words / t 1/2 of elevated heart rate decay / Total time (startup) thru offset plateau: w/in 10 bpm of baseline: Table IV; for Onset Slope: baseline at onset time to peak heart rate; for Offset time: drug delivery stopped until within 20 bpm of baseline; for Offset Slope: drug shut-off to 20 bpm above baseline; for Delay: drug shut-off to start of heart rate decline; for t 1/2 of elevated heart rate decay: exponential fit; for Reduction in offset time: iontophoretic pre-delivery; for Onset time: start of delivery to start of increase in heart rate; for Time Start Decline: time when elevated heart rate began to decline

Compound: COC(=O)c1cccnc1 [Methyl Nicotinate, methyl ester of nicotinic acid]
- Offset Slope Component (0-5) min (listed as 9): -2.40 beats per minute per minute
- Offset Slope Component (0-5) min (listed as 10): -1.40 beats per minute per minute
- Offset Slope Component (5-10) min (listed as 9): -0.40 beats per minute per minute
- Offset Slope Component (5-10) min (listed as 10): -2.40 beats per minute per minute
- Offset Slope Component (10-30) min (listed as 9): -0.28 beats per minute per minute
- Offset Slope Component (10-30) min (listed as 10): -1.90 beats per minute per minute
- Change in Heart Rate (peak minus baseline) (listed as 9): 55 bpm
- Peak Heart Rate (listed as 9): 117 bpm
- Change in Heart Rate (peak minus baseline) (listed as 10): 81 bpm
- Peak Heart Rate (listed as 10): 152 bpm
- Total time (startup) thru offset plateau: w/in 20 bpm of baseline: 55 min
- Total time (startup) thru offset plateau: in words (listed as 9): Never Reached w/in 20 bpm of baseline
- Total time (startup) thru offset plateau: in words (listed as 10): never lower
- Onset Slope (listed as 9): 4.20 beats per minute per minute
- Onset Slope (listed as 10): 12.30 beats per minute per minute
- Offset time (listed as 9): 29.00 min
- Offset time (listed as 10): 31.00 min
- Offset Slope (listed as 9): -0.40 beats per minute per minute
- Offset Slope (listed as 10): -1.70 beats per minute per minute
- Delay (listed as 9): 6.50 min
- Delay (listed as 10): 2.50 min
- t 1/2 of elevated heart rate decay: 21.36 min
- Reduction in offset time: also reduce offset time
- Onset time (listed as 9): 15.00 min
- Onset time (listed as 10): 7.00 min
- Time Start Decline (listed as 9): 25.00 min
- Time Start Decline (listed as 10): 20.50 min

Compound: CC(COc1ccccc1)N(CCCl)Cc1ccccc1 (stereo not drawn) [Phenoxybenzamine]
- Offset Slope Component (0-5) min (listed as 18): -4.20 beats per minute per minute
- Offset Slope Component (0-5) min (listed as 19): -4.90 beats per minute per minute
- Offset Slope Component (5-10) min (listed as 18): 0.02 beats per minute per minute
- Offset Slope Component (5-10) min (listed as 19): -2.00 beats per minute per minute
- Offset Slope Component (10-30) min (listed as 18): -0.53 beats per minute per minute
- Offset Slope Component (10-30) min (listed as 19): -1.80 beats per minute per minute
- Change in Heart Rate (peak minus baseline) (listed as 18): 57 bpm
- Peak Heart Rate (listed as 18): 117 bpm
- Change in Heart Rate (peak minus baseline) (listed as 19): 79 bpm
- Peak Heart Rate (listed as 19): 149 bpm
- Total time (startup) thru offset plateau: w/in 10 bpm of baseline (listed as 18): 60 min
- Total time (startup) thru offset plateau: w/in 10 bpm of baseline (listed as 19): 48 min
- Onset Slope (listed as 18): 3.70 beats per minute per minute
- Onset Slope (listed as 19): 13.90 beats per minute per minute
- Offset time (listed as 18): 30.00 min
- Offset time (listed as 19): 25.80 min
- Offset Slope (listed as 18): -0.80 beats per minute per minute
- Offset Slope (listed as 19): -2.30 beats per minute per minute
- Delay (listed as 18): 10.00 min
- Delay (listed as 19): 3.50 min
- t 1/2 of elevated heart rate decay (listed as 18): 16.96 min
- t 1/2 of elevated heart rate decay (listed as 19): 11.52 min
- Reduction in offset time: found effective when pre-delivered iontophoretically; also recorded: also reduce offset time
- Onset time (listed as 18): 18.00 min
- Onset time (listed as 19): 7.40 min
- Time Start Decline (listed as 18): 28.00 min
- Time Start Decline (listed as 19): 22.00 min

Compound: Cc1ccc(N(CC2=NCCN2)c2cccc(O)c2)cc1 [Phentolamine]
- Reduction in offset time: found effective when pre-delivered iontophoretically

Compound: CC[C@@H]1C(=O)OC[C@@H]1Cc1cncn1C [Pilocarpine]
- Offset Slope Component (0-5) min (listed as 7): -1.70 beats per minute per minute
- Offset Slope Component (0-5) min (listed as 8): -7.60 beats per minute per minute
- Offset Slope Component (5-10) min (listed as 7): -2.50 beats per minute per minute
- Offset Slope Component (5-10) min (listed as 8): -1.40 beats per minute per minute
- Percent decline in heart rate, ranking (5-10 minute interval, FIG. 1): next highest percent declines
- Offset Slope Component (10-30) min (listed as 7): -1.10 beats per minute per minute
- Offset Slope Component (10-30) min (listed as 8): -1.00 beats per minute per minute
- Delay to onset of heart rate decline, ranking (FIG. 2): shortest delay
- Change in Heart Rate (peak minus baseline) (listed as 7): 73 bpm
- Peak Heart Rate (listed as 7): 133 bpm
- Change in Heart Rate (peak minus baseline) (listed as 8): 114 bpm
- Peak Heart Rate (listed as 8): 191 bpm
- Total time (startup) thru offset plateau: in words: Never reached w/in 20 bpm of baseline
- Total time (startup) thru offset plateau: w/in 20 bpm of baseline: 60 min
- Onset Slope (listed as 7): 11.60 beats per minute per minute
- Onset Slope (listed as 8): 11.20 beats per minute per minute
- Offset time (listed as 7): 38.00 min
- Offset time (listed as 8): 36.00 min
- Offset Slope (listed as 7): -1.10 beats per minute per minute
- Offset Slope (listed as 8): -1.70 beats per minute per minute
- Delay (listed as 7): 1.30 min
- Delay (listed as 8): 5.30 min
- t 1/2 of elevated heart rate decay (listed as 7): 28.85 min
- t 1/2 of elevated heart rate decay (listed as 8): 21.36 min
- Reduction in offset time: also reduce offset time
- Onset time (listed as 7): 6.70 min
- Onset time (listed as 8): 13.00 min
- Time Start Decline (listed as 7): 23.80 min
- Time Start Decline (listed as 8): 24.30 min
